Among the data in PubChem BioAssay AID463206 (Broad Institute, 2010) are AC50 values, retold here.

Activity calls are given as the source filed them.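 How the source made its calls: active means caspase luminescence falls with dose and the half-maximal concentration AC50 from the fitted curve is at or below a set limit; inconclusive means flat fit at 30 to 70% signal loss, or invalid fit; inactive means AC50 above the limit, or signal rises instead.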 A value given as a limit tells only on which side of the number the result lay.

In the test the test system is INS-1E cytokine-induced caspase-3/7, Caspase-Glo luminescence, 48 h. Description: suppression of cytokine-driven beta-cell apoptosis – INS-1E rat cells, luminescence, orthogonal assay for beta-cell apoptosis protection project, dose response (AID 463206).

For orientation: AC50 means the concentration at which the activity in the assay is half-maximal. For the molecule `Cc1nnc(N/N=C/c2ccccn2)[nH]c1=O`, the AC50 is > 26 µM (inactive).
For the molecule `COc1ccc(C(=O)NN/C(C)=C/C(=O)C(F)(F)C(F)(F)C(F)(F)F)cc1`, the AC50 is > 26 µM (inactive).
Consider `c1ccc(-c2csc3ncnc(NCC4COc5ccccc5O4)c23)cc1` (centres undefined), for which the AC50 was > 26 µM (inactive).
Under `COc1cc(Br)cc(/C=N/NC(=O)Cc2ccc(C(F)(F)F)cc2[N+](=O)[O-])c1O` stands > 26 µM (inactive).
On to `COc1ccc(C(=O)N/N=C/c2cc(Br)ccc2O)cc1OC`, for which the AC50 was > 26 µM (inactive).
As to `Cc1ccc(C)c(NC(=O)/C(C#N)=C/c2cn(CC(=O)NCc3ccco3)c3ccccc23)c1`, the AC50 was > 26 µM (inactive).
On to `O=C(CCC(=O)Nc1ccc(Cl)cc1Cl)N/N=C/c1ccc([N+](=O)[O-])o1`, for which the AC50 is > 26 µM (inactive).
Turning to `CC(NC(=O)C1CCC(C(=O)NC(C)c2ccccc2)CC1)c1ccccc1` (centres undefined), the AC50 was > 26 µM (inactive).
`CNc1nc2cc([N+](=O)[O-])c([N+](=O)[O-])cc2nc1NC`: the AC50 was > 26 µM (inactive).
`Cc1ccc(O)c(CNc2cccc3cccnc23)c1`: the AC50 was > 12 µM (inactive).
Under `CCCCCCCCCCOC(=O)Cn1c(COc2ccc(C)cc2)[n+](C)c2ccccc21` stands > 26 µM (inactive).
With `COc1ccc(N2CC(C(=O)N3CCN(c4ccccc4F)CC3)CC2=O)cc1` (centres undefined), the AC50 is > 26 µM (inactive).
In the case of `COc1ccc(OC)c(NC(=O)c2nc(S(=O)(=O)Cc3ccccc3)ncc2Cl)c1`, the AC50 was > 26 µM (inactive).
Consider `CC1CCc2c(sc3nc(C4CC4)nc(N4CCN(C(=O)c5ccco5)CC4)c23)C1` (centres undefined), for which the AC50 was > 26 µM (inactive).
For `CCN(CC)CCn1nc2c3c(cccc3c1=O)-c1ccccc1-2`, the AC50 is 8.24 µM.
In the case of `COc1cc2c(cc1OC)-c1c(OC)c(OC)c(OC)c3ccnc(c13)C2=O`, the AC50 was 7.97 µM.
For the molecule `CN1/C(=C\P(=O)(N(C)C)N(C)C)C(C)(C)c2ccccc21`, the AC50 was > 26 µM (inactive).
With `Cc1ccc2nc(C)c(CN3CCN(c4ccc([N+](=O)[O-])cc4Cl)CC3)n2c1`, the AC50 is > 26 µM (inactive).
With `Cc1cccc(NC(=O)Nc2cccc(Oc3c(F)c(F)c(F)c(F)c3F)c2)c1`, the AC50 was > 26 µM (inactive).
With `Oc1ccc2ccccc2c1N=Nc1nccs1`, the AC50 is > 26 µM (inactive).
Take `Oc1ccc(CN2CCCc3ccccc32)c2cccnc12`: the AC50 was > 26 µM (inactive).
For `O=C(Nc1nc2ccc(F)cc2s1)C1CCN(S(=O)(=O)c2cc([N+](=O)[O-])ccc2Cl)CC1` the value was > 26 µM (inactive); for `O=C(NNC(=S)Nc1ccc(Cl)c(Cl)c1)c1ccccn1`, > 26 µM (inactive); for `Cc1ccc(NC(=O)Cn2c(O)c(N=NC(=O)c3cc4ccccc4cc3O)c3ccccc32)cc1`, > 26 µM (inactive).
As for `Cc1cc(N2CCOCC2)nc(N)n1`, the AC50 is > 26 µM (inactive).
Regarding `C/C(=N\NC(=O)c1ccccc1Cl)c1ccccn1`, the AC50 is > 26 µM (inactive).
Under `COc1c(CC=C(C)C)cc(C2CC(=O)c3c(O)cc(O)cc3O2)cc1CC=C(C)C` (centres undefined) stands > 26 µM (inactive); under `Cc1cc(C)c2nc(NNC(=O)c3ccc(S(=O)(=O)N4CCCC(C)C4)cc3)sc2c1` (centres undefined), > 26 µM (inactive).
Consider `CCCOC(=O)/C(C(N)=NCc1ccccc1)=C(\O)OCCC`, for which the AC50 is > 26 µM (inactive).
For the molecule `Fc1ccccc1/C=N/Nc1nc(-c2ccccn2)nc2ccccc12`, the AC50 is > 26 µM (inactive).
Turning to `COc1cc([N+](=O)[O-])ccc1NC(=O)CC1SC(=Nc2ccc(F)cc2)N(CCC2=CCCCC2)C1=O` (centres undefined), the AC50 is > 26 µM (inactive).
For `Cc1cc(C)nc(SCC(=O)Nc2ccnc3ccccc23)n1` the value was > 26 µM (inactive); for `Cc1cc(C)c(S(=O)(=O)/N=C2/C=C(Sc3ncn[nH]3)C(=O)c3ccccc32)cc1C`, > 26 µM (inactive).
With `Cc1nnsc1-c1onc(C)c1C(=O)Nc1cc(Cl)cc(Cl)c1`, the AC50 was > 26 µM (inactive).
Take `Cc1nc2c(=O)n(C)c(=O)nc-2n(C)n1`: the AC50 was > 26 µM (inactive).
Consider `CC1(C)CC(N2CCN(Cc3ccccc3)CC2)=CC(=[N+]2CCCCC2)C1`, for which the AC50 was > 26 µM (inactive).
Regarding `C/C(=N\N1C(=O)c2ccccc2NC1c1ccccc1)c1ccccc1O` (centres undefined), the AC50 was > 26 µM (inactive).
Under `CC1=C/C(=N\OS(=O)(=O)c2ccccc2)C(C(C)C)=CC1=O` stands > 26 µM (inactive); under `Cc1ccc(C2C(C=Nc3c(C)n(C)n(-c4ccccc4)c3=O)=C(c3ccccc3)Oc3ccccc32)cc1` (centres undefined), > 26 µM (inactive).
For `COc1cccc(N=Nc2ccc3cccnc3c2O)c1`, the AC50 is > 26 µM (inactive).
Regarding `CCC[C@@H](CN1CCC[C@H]1CN1C(N)=NC[C@@H]1Cc1ccccc1)N1C[C@@H]([C@H](C)CC)N(CCCC2CCCC2)C1=N`, the AC50 is > 26 µM (inactive).
For `CC(C)(C)c1cc(NCCCn2ccnc2)n2ncc(-c3ccccc3)c2n1`, the AC50 was > 26 µM (inactive).
With `Cc1cccc(/C=N\NC(=O)c2ccc(Cl)cc2)c1O`, the AC50 was > 26 µM (inactive).
For `CC(Sc1nnc2c(n1)[nH]c1ccccc12)C(=O)N(C)C1CCCCC1` (centres undefined) the value was > 12 µM (inactive); for `Clc1ccc(C(c2ccc(Cl)cc2)n2cc[n+](CC(OCc3ccc(Cl)cc3Cl)c3ccc(Cl)cc3Cl)c2)cc1` (centres undefined), > 26 µM (inactive); for `COc1ccc(NC(=O)CN(C)C(=O)/C=C/c2ccc(S(=O)(=O)N3CCCCCC3)cc2)cc1`, > 26 µM (inactive).
On to `Cc1nc(C)c(-c2csc(NCCc3ccccc3)n2)s1`, for which the AC50 was > 26 µM (inactive).
For `Cc1ccc(C(=O)O/N=C/c2c(N3CCOCC3)n(C)c3ccccc23)cc1` the value was > 26 µM (inactive); for `CCN(Cc1ccccc1)C(c1ccc(C(F)(F)F)cc1)c1nnnn1C(C)(C)C` (centres undefined), > 26 µM (inactive).
Under `COc1ccc(C(=O)CSc2n[nH]c(=O)n2Cc2ccco2)cc1` stands > 26 µM (inactive); under `COc1ccc(S(=O)(=O)N(C(=O)c2ccco2)c2cc3sc(=O)oc3c3ccccc23)cc1`, > 26 µM (inactive).
Take `CCOC(=O)N1CCN(Cc2cc(Cl)c3cccnc3c2O)CC1`: the AC50 was > 26 µM (inactive).
For `CC(C)Oc1ccc(S(=O)(=O)N2CCCCC2)cc1NC(=O)CN1CCCC1c1cccs1` (centres undefined) the value was > 26 µM (inactive).
As to `Cc1c(/C=N/Nc2nc3ccccc3[nH]2)c2ccccc2n1C`, the AC50 is > 26 µM (inactive).
`O=C(Nc1nc(-c2ccccn2)cs1)c1ccccc1-n1cnnn1`: the AC50 is > 26 µM (inactive).
For `CC(C)COCc1ccc(O)c2ncccc12`, the AC50 was > 26 µM (inactive).
For `Cc1ccc(C)c(NC(=O)c2ccccc2NS(=O)(=O)c2cc([N+](=O)[O-])ccc2C)c1` the value was > 26 µM (inactive); for `CCCCC[n+]1cccc2c3ccccc3ccc21`, > 26 µM (inactive); for `c1ccc(-c2nc3nonc3nc2-c2ccccc2)cc1`, > 26 µM (inactive).
Regarding `COc1ccc(OC)c2c1C(=O)C(Cl)=C(Cl)C2=O`, the AC50 was > 26 µM (inactive).
Take `CC1CCN(Cc2c(C(=O)N/N=C/c3cc(Br)ccc3O)nnn2-c2nonc2N)CC1`: the AC50 was > 26 µM (inactive).
Regarding `Cc1cc(C)n(-c2nc(NC(C)(C)C)nc(NC(C)(C)C)n2)n1`, the AC50 is > 26 µM (inactive).
For the molecule `O=C(N/N=C/c1cc(Br)c(O)c(Br)c1O)c1ccc2c(c1)OCCO2`, the AC50 was > 26 µM (inactive).
In the case of `CC(C)=CCc1cc2c(=O)c3c(O)c4c(cc3oc2c(O)c1O)OC(C)C4(C)C` (centres undefined), the AC50 is > 26 µM (inactive).
Under `O=C(Oc1c(CN2CCOCC2)cc(Cl)c2cccnc12)c1ccccc1` stands > 26 µM (inactive).
In the case of `CCOc1cc(/C=N/NC(=O)c2cc(-c3cccc(OC)c3)nc3ccccc23)ccc1O`, the AC50 is > 26 µM (inactive).
Regarding `COc1cccc(CNCCc2c[nH]c3ccccc23)c1OCc1ccccc1F`, the AC50 was > 26 µM (inactive).
Under `Cc1sc2ncnc(N3CCN(CCOc4ccc(Cl)cc4)CC3)c2c1C` stands > 26 µM (inactive).
For `O=[N+]([O-])c1ccc(N2CCN(CCOc3nonc3-c3ccccc3)CC2)c(Cl)c1` the value was > 26 µM (inactive); for `CCOC(=O)c1c(CSc2nc(C)cc(C)c2C#N)n(C)c2cc(Br)c(OC(C)=O)cc12`, > 26 µM (inactive); for `C/C(=N\NC(=O)c1nnn(-c2nonc2N)c1-c1ccccc1)c1ccccc1O`, > 26 µM (inactive).
On to `CCOC(=O)N1CCN(S(=O)(=O)c2ccc(C(=O)NNc3nc4cc(C)cc(C)c4s3)cc2)CC1`, for which the AC50 was > 26 µM (inactive).
As for `Cc1cc(C)n(CCC(=O)N/N=C/c2c(O)ccc3ccccc23)n1`, the AC50 is > 26 µM (inactive).
Regarding `CCOc1ccccc1NC(=O)c1nc(S(=O)(=O)Cc2cccc(C)c2)ncc1Cl`, the AC50 is > 26 µM (inactive).
As to `c1cc(-c2noc(CC3CCCCC3)n2)ccn1`, the AC50 was > 26 µM (inactive).
Under `Cn1nccc1C(=O)NC1CCCc2c1cnn2-c1ccccc1F` (centres undefined) stands > 26 µM (inactive).
For `NC1=NC[C@H](Cc2ccc(O)cc2)N1CCCCC1CCCCC1` the value was > 26 µM (inactive); for `C[C@H]1CCC/C=C/C2C[C@H](O)CC2[C@H](O)/C=C/C(=O)O1` (some centres undefined), > 26 µM (inactive).
On to `O=C(N/N=C/c1ccc(O)cc1O)c1ccc(NC(=O)C2CCCCC2)cc1`, for which the AC50 is > 26 µM (inactive).
Turning to `O=c1nccc(N/N=C/c2ccccc2O)[nH]1`, the AC50 was > 26 µM (inactive).
For `CC(C)C(=O)NC(=S)/C=C1/N(C)c2ccccc2C1(C)C`, the AC50 was > 26 µM (inactive).
`O=C(Nc1ccc(-c2noc(-c3cccs3)n2)cc1)c1cccnc1`: the AC50 was > 26 µM (inactive).
For `CCCCCCc1cc2cc(C(=O)Nc3cccc(OC)c3)c(=O)oc2cc1O`, the AC50 was > 26 µM (inactive).
In the case of `O=C(NCc1cccnc1)/C(=C\c1ccc(-c2ccc(Br)cc2)o1)S(=O)(=O)c1ccccc1`, the AC50 was > 26 µM (inactive).
